Entries after “also recorded” stand apart in the source; their conditions may differ. Where two headings read alike, the source gives them in different places.
Legend:
[1] = target: T1, YTHDF1 domain (Homo sapiens, UniProt Q9BYJ9); assay: High-throughput screen, tryptophan quenching, Z-score; type: binding; details: 5 μM protein, compounds at 10 μM
T1 construct: The human YTHDF1 YTH domain (amino acids 365–554, PDB: 4RCJ); host or cells: E. coli BL21(DE3)
T1 sequence (Q9BYJ9 365-554): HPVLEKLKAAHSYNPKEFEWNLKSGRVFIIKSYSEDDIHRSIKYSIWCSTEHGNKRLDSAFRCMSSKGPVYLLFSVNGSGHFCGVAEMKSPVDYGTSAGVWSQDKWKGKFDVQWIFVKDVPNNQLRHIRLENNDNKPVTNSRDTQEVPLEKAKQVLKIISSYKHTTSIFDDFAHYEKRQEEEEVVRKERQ
Description: A Z factor of 0.53 was obtained. The high-throughput screen was performed by using an automatic liquid handling (Freedom EVO, Tecan), filling black 384-well plates with 15 μL of 5 μM protein in 20 mM Tris (pH 7.5), 150 mM NaCl, and 10% glycerol, and then by adding the library of compounds at a final concentration of 10 μM. Fluorescence was measured immediately after compound addition. The library used was the Spectrum Collection (Microsource Discovery System, Inc.), composed of 2560 compounds, of whom 60% are clinically used drugs, 25% natural products, and 15% other bioactive molecules. The Z-score was calculated as (X – μp)/σp, where X is the fluorescence intensity of the protein. Candidate molecules were considered all of the ones that were under the threshold of Z = −3, while all of the ones over that value were discarded.

[2] = target: T2, YTHDF1 YTH domain (Homo sapiens, UniProt Q9BYJ9); assay: NMR titration (2D 1H-15N HSQC) in reducing conditions; type: binding; details: 10 mM β-mercaptoethanol, 100 μM protein
T2 construct: The human YTHDF1 YTH domain (amino acids 365–554, PDB: 4RCJ); host or cells: E. coli BL21(DE3)
T2 sequence (Q9BYJ9 365-554): T1 sequence (Q9BYJ9 365-554)
Description: To further investigate the ligand–protein interaction in reversible conditions, the resonances of the YTHDF1 YTH domain were assigned. The protein sample was titrated with ebselen, in the presence of β-mercaptoethanol (10 mM) as a reducing agent, to prevent the covalent bond formation. The titration was monitored by NMR to map at atomic resolution the ligand-binding site on the protein surface. Increasing amounts of the ligand (12.5, 25, 50, 100, and 200 μM) were added to the protein solution during the NMR titration, and 2D ^1H–^15N heteronuclear single quantum coherence (HSQC) spectra were acquired.
The interaction of the protein with ebselen was investigated by solution NMR. 2D ^1H–^15N HSQC spectra were acquired on a spectrometer operating at 950 MHz and 298 K, on the free protein (100 μM in 20 mM Tris buffer, pH 7.5, 150 mM NaCl, 250 mM LiCl, 10 mM 2-mercaptoethanol, 0.5 mM EDTA, 0.1% NaN3, and protease inhibitors) and after the addition of increasing aliquots of a solution of the ligand in DMSO-d6 to reach the final concentrations of 12.5, 25, 50, 100, and 200 μM.

[3] = target: T3, YTH domain of the YTHDC1 protein (Homo sapiens, UniProt Q96MU7); assay: Tryptophan fluorescence quenching assay; type: binding
T3 construct: made in house
Description: (§1) Fluorescence was measured using a Tecan Infinite 200 Microplate reader (Tecan Group Ltd.), setting the […] wavelength at 288 nm and collecting the emission data at 330 nm.

[4] = target: T4, human YTHDF2 YTH domain (Homo sapiens, UniProt Q9Y5A9); assay: Tryptophan fluorescence quenching assay; type: binding
T4 construct: the human YTHDF2 YTH domain (amino acids 383–553, PDB: 4WQN); made in house; host or cells: E. coli BL21(DE3)
T4 sequence (Q9Y5A9 383-553): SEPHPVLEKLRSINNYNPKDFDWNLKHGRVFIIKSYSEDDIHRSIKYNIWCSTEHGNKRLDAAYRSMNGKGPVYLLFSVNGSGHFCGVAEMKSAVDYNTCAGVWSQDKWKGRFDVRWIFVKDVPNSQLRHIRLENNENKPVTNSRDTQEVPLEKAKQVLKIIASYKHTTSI
Description: as §1

[5] = target: T2, YTHDF1 YTH domain; assay: Tryptophan fluorescence quenching assay; type: binding
Description: as §1

[6] = tested on: m6A-mRNAs (CREBBP, YTHDF2, GATA2, HNRNPF) in PC-3 cells; assay: m6A mRNA stability measurement with actinomycin D; type: cell-based, human; details: 4 h co-treatment with actinomycin D, versus DMSO, listed as ebselen
Description: PC-3 cells were plated on a six-well dish. At 70–80% confluency, cells were treated with […] actinomycin D or vehicle (DMSO) to inhibit transcription in combination with 50 μM ebselen for 4 h before collection. As a control, cells were treated with actinomycin D or vehicle (DMSO) for 4 h. Total RNA was isolated from cells using TRIzol according to the manufacturer’s instructions. For each condition, the same amount of total RNA was reverse-transcribed to cDNA (2 μg) using the SuperScript IV First-Strand kit. Oligo-dT primers were used during the cDNA synthesis step. This allowed us to selectively convert to cDNA the amount of intact RNA still present in cells upon actinomycin D treatment while avoiding the conversion of fragmented RNA to cDNA. qRT-PCR experiments were performed in duplicates and normalized on a stable mRNA, GAPDH.

Structure (SMILES): O=c1c2ccccc2[se]n1-c1ccccc1 [Compound 1, 2-phenyl-1,2-benzisoselenazol-3(2H)-one]
- Mean(FI.z-score) [1]: -3.819
- Affinity constant judged from NMR titration (in words) [2]: low micromolar range
- Interaction with the YTH domain (tryptophan fluorescence, in words) ([3]; listed as Ebselen): cannot reduce tryptophan fluorescence
- Interaction with the YTH domain (tryptophan fluorescence, in words) ([3]; listed as ebselen): did not interact
- EC50 [4]: 1660 nM
- EC50 ([5]; 5 μM protein, read-out: EC50 (tryptophan quenching)): 1.63 µM
- EC50 ([5]; Table 1, read-out: EC50 (μM) (Tryptophan quenching)): 1.5 ± 0.24 µM
- Stability of methylated mRNAs (in words) [6]: increase in mRNA stability; also recorded: increased the stability of methylated genes

From paper PMC9578143, “Small-Molecule Ebselen Binds to YTHDF Proteins Interfering with the Recognition of N^6-Methyladenosine-Modified RNAs” (ACS Pharmacology & Translational Science, 2022)
